Patent US5593984A, “Cephalosporin derivatives” (Yuhan Corporation, priority 1992, dated 1997)
In brackets after ≈: the same amount, converted by molar mass.

Assays:
Format in all cases: cell-based
[1] = system: Staph. aureus C-5113; assay: MIC by agar dilution, Staph. aureus C-5113; conditions: Staphylococcus aureus, C5113, 17 h, Mueller-Hinton agar, read-out: Minimal Inhibitory Concentration (MIC)
Experimental: (§1) These MIC values were determined by agar dilution method: that is, two-fold dilutions of each of the test compounds were made and dispersed in a Mueller-Hinton agar medium; standard test strain which had the 10^6 CFU (Colony Forming Unit) per ml was inoculated on the medium with microplanter (Toyo, Japan), and incubated at 35°-37° C. for 17±1 hours. The structures of Ceftazidime (CAZ) and Cefotaxime (CTX) which are used as control compounds are as follows: [drawing 12]

[2] = system: E. coli No. 29; assay: MIC by agar dilution, E. coli No. 29; conditions: Escherichia coli, 17 h; E. coli No. 29; agar dilution, Mueller-Hinton agar; read-out: Minimal Inhibitory Concentration (MIC)
Experimental: as §1

[3] = system: K. pneumoniae NCTC 9632; assay: MIC by agar dilution, K. pneumoniae NCTC 9632; conditions: Klebsiella pneumoniae, NCTC9632, 17 h; K. pneumoniae NCTC 9632; agar dilution, Mueller-Hinton agar; read-out: Minimal Inhibitory Concentration (MIC)
Experimental: as §1

[4] = system: Ent. aerogenes IFO 12979; assay: MIC by agar dilution, Ent. aerogenes IFO 12979; conditions: Klebsiella aerogenes, IFO12979, 17 h, Mueller-Hinton agar, read-out: Minimal Inhibitory Concentration (MIC)
Experimental: as §1

[5] = system: B. subtilis ATCC 6633; assay: MIC by agar dilution, B. subtilis ATCC 6633; conditions: Bacillus subtilis, ATCC6633, 17 h; B. subtilis ATCC 6633; agar dilution, Mueller-Hinton agar; read-out: Minimal Inhibitory Concentration (MIC)
Experimental: as §1

[6] = system: Ps. aeruginosa DY-2; assay: MIC by agar dilution, Ps. aeruginosa DY-2; conditions: Pseudomonas aeruginosa, DY2, 17 h; Ps. aeruginosa DY-2; agar dilution, Mueller-Hinton agar; read-out: Minimal Inhibitory Concentration (MIC)
Experimental: as §1

[7] = system: Ps. aeruginosa NCTC 10490; assay: MIC by agar dilution, Ps. aeruginosa NCTC 10490; conditions: Pseudomonas aeruginosa, NCTC10490, 17 h, Mueller-Hinton agar, read-out: Minimal Inhibitory Concentration (MIC)
Experimental: as §1

[8] = system: E. coli DY-1; assay: MIC by agar dilution, E. coli DY-1; conditions: Escherichia coli, DY1, 17 h; E. coli DY-1; agar dilution, Mueller-Hinton agar; read-out: Minimal Inhibitory Concentration (MIC)
Experimental: as §1

[9] = system: P. vulgaris NCTC 8313; assay: MIC by agar dilution, P. vulgaris NCTC 8313; conditions: Proteus vulgaris, NCTC8313, 17 h; P. vulgaris NCTC 8313; agar dilution, Mueller-Hinton agar; read-out: Minimal Inhibitory Concentration (MIC)
Experimental: as §1

[10] = system: Staph. aureus C-57; assay: MIC by agar dilution, Staph. aureus C-57; conditions: Staphylococcus aureus, C57, 17 h, Mueller-Hinton agar, read-out: Minimal Inhibitory Concentration (MIC)
Experimental: as §1

[11] = system: E. coli NIHJ JC-2; assay: MIC by agar dilution, E. coli NIHJ JC-2; conditions: Escherichia coli, NIHJJC2, 17 h; E. coli NIHJ JC-2; agar dilution, Mueller-Hinton agar; read-out: Minimal Inhibitory Concentration (MIC)
Experimental: as §1

[12] = system: S. epidermidis ATCC 12228; assay: MIC by agar dilution, S. epidermidis ATCC 12228; conditions: Staphylococcus epidermidis, ATCC12228, 17 h; S. epidermidis ATCC 12228; agar dilution, Mueller-Hinton agar; read-out: Minimal Inhibitory Concentration (MIC)
Experimental: as §1

[13] = system: Ser. marcescens IFO 12648; assay: MIC by agar dilution, Ser. marcescens IFO 12648; conditions: Serratia marcescens, IFO12648, 17 h; Ser. marcescens IFO 12648; agar dilution, Mueller-Hinton agar; read-out: Minimal Inhibitory Concentration (MIC)
Experimental: as §1

[14] = system: Ent. cloacae IFO 13535; assay: MIC by agar dilution, Ent. cloacae IFO 13535; conditions: Enterobacter cloacae, IFO13535, 17 h; Ent. cloacae IFO 13535; agar dilution, Mueller-Hinton agar; read-out: Minimal Inhibitory Concentration (MIC)
Experimental: as §1

[15] = system: Staph. aureus C-5216; assay: MIC by agar dilution, Staph. aureus C-5216; conditions: Staphylococcus aureus, C5216, 17 h, Mueller-Hinton agar, read-out: Minimal Inhibitory Concentration (MIC)
Experimental: as §1

[16] = system: Ps. aeruginosa ATCC 10145; assay: MIC by agar dilution, Ps. aeruginosa ATCC 10145; conditions: Pseudomonas aeruginosa, ATCC10145, 17 h, Mueller-Hinton agar, read-out: Minimal Inhibitory Concentration (MIC)
Experimental: as §1

[17] = system: Staph. aureus ATCC 6538P; assay: MIC by agar dilution, Staph. aureus ATCC 6538P; conditions: Staphylococcus aureus, ATCC6538P, 17 h; Staph. aureus ATCC 6538P; agar dilution, Mueller-Hinton agar; read-out: Minimal Inhibitory Concentration (MIC)
Experimental: as §1

[18] = system: M. morganii DY-1; assay: MIC by agar dilution, M. morganii DY-1; conditions: Morganella morganii, DY1, 17 h; M. morganii DY-1; agar dilution, Mueller-Hinton agar; read-out: Minimal Inhibitory Concentration (MIC)
Experimental: as §1

[19] = system: Staph. aureus Smith; assay: MIC by agar dilution, Staph. aureus Smith; conditions: Staphylococcus aureus, 17 h, Mueller-Hinton agar, read-out: Minimal Inhibitory Concentration (MIC)
Experimental: as §1

[20] = system: Prov. stuartii IFO 12930; assay: MIC by agar dilution, Prov. stuartii IFO 12930; conditions: Providencia stuartii, IFO12930, 17 h, Mueller-Hinton agar, read-out: Minimal Inhibitory Concentration (MIC)
Experimental: as §1

SMILES	MIC [1] [µg/mL]	MIC [2] [µg/mL]	MIC [3] [µg/mL]	MIC [4] [µg/mL]	MIC [5] [µg/mL]	MIC [6] [µg/mL]	MIC [7] [µg/mL]	MIC [8] [µg/mL]	MIC [9] [µg/mL]	MIC [10] [µg/mL]	MIC [11] [µg/mL]	MIC [12] [µg/mL]	MIC [13] [µg/mL]	MIC [14] [µg/mL]	MIC [15] [µg/mL]	MIC [16] [µg/mL]	MIC [17] [µg/mL]	MIC [18] [µg/mL]	MIC [19] [µg/mL]	MIC [20] [µg/mL]
CON=C(C(=O)NC1C(=O)N2C(C(=O)[O-])=C(C[n+]3ccn4c(C=O)ccc4c3)CSC12)c1csc(N)n1 (stereo not drawn) [Ex. 25, 7-β-[(Z)-2-(2-aminothiazol-4-yl)-2-methoxyiminoacetamido]-3-(6-formylpyrrolo[1,2-a]pyrazinium-2-yl)methyl-3-cephem-4-carboxylate]	3.13 (≈ 5.78 µM)	0.05 (≈ 0.0923 µM)	0.05 (≈ 0.0923 µM)	0.025 (≈ 0.0462 µM)	0.39 (≈ 0.72 µM)	12.5 (≈ 23.1 µM)	0.39 (≈ 0.72 µM)	0.05 (≈ 0.0923 µM)	0.05 (≈ 0.0923 µM)	25 (≈ 46.2 µM)	0.025 (≈ 0.0462 µM)	0.1 (≈ 0.185 µM)	0.05 (≈ 0.0923 µM)	0.78 (≈ 1.44 µM)	1.56 (≈ 2.88 µM)	3.13 (≈ 5.78 µM)	0.78 (≈ 1.44 µM)	0.05 (≈ 0.0923 µM)	3.13 (≈ 5.78 µM)	0.012 (≈ 0.0222 µM)
CCON=C(C(=O)NC1C(=O)N2C(C(=O)[O-])=C(C[n+]3ccn4ccc(CO)c4c3)CSC12)c1csc(N)n1 (stereo not drawn) [Ex. 31, 7-β-[(Z)-2-(2-aminothiazol-4-yl)2-ethoxyiminoacetamido]-3-(8-hydroxymethylpyrrolo[1,2-a]pyrazinium-2-yl)methyl-3-cephem-4-carboxylate]	6.25 (≈ 11.2 µM)	0.012 (≈ 0.0215 µM)	0.05 (≈ 0.0897 µM)	0.025 (≈ 0.0448 µM)	0.1 (≈ 0.179 µM)	3.13 (≈ 5.61 µM)	0.78 (≈ 1.4 µM)	≤ 0.006	0.012 (≈ 0.0215 µM)	25 (≈ 44.8 µM)	0.05 (≈ 0.0897 µM)	0.2 (≈ 0.359 µM)	0.05 (≈ 0.0897 µM)	0.2 (≈ 0.359 µM)	3.13 (≈ 5.61 µM)	1.56 (≈ 2.8 µM)	0.2 (≈ 0.359 µM)	0.025 (≈ 0.0448 µM)	1.56 (≈ 2.8 µM)	0.025 (≈ 0.0448 µM)
NCCSc1ccc2c[n+](CC3=C(C(=O)[O-])N4C(=O)C(NC(=O)C(=NOCF)c5csc(N)n5)C4SC3)ccn12 (stereo not drawn) [Ex. 29, 7-β-[(Z)-2-(2-aminothiazol-4-yl)2-fluoromethoxyiminoacetamido]-3-[6-(2-aminoethylthio)pyrrolo[1,2-a]pyrazinium-2-yl]methyl-3-cephem-4-carboxylat]	0.78 (≈ 1.29 µM)	≤ 0.006	≤ 0.006	≤ 0.006	0.05 (≈ 0.0824 µM)	6.25 (≈ 10.3 µM)	0.2 (≈ 0.33 µM)	≤ 0.006	≤ 0.006	25 (≈ 41.2 µM)	≤ 0.006	0.05 (≈ 0.0824 µM)	≤ 0.006	0.012 (≈ 0.0198 µM)	0.78 (≈ 1.29 µM)	0.78 (≈ 1.29 µM)	0.2 (≈ 0.33 µM)	≤ 0.006	0.78 (≈ 1.29 µM)	≤ 0.006

Second part, the molecule after the results:

MIC [1] [µg/mL]	MIC [2] [µg/mL]	MIC [3] [µg/mL]	MIC [4] [µg/mL]	MIC [5] [µg/mL]	MIC [6] [µg/mL]	MIC [7] [µg/mL]	MIC [8] [µg/mL]	MIC [9] [µg/mL]	MIC [10] [µg/mL]	MIC [11] [µg/mL]	MIC [12] [µg/mL]	MIC [13] [µg/mL]	MIC [14] [µg/mL]	MIC [15] [µg/mL]	MIC [16] [µg/mL]	MIC [17] [µg/mL]	MIC [18] [µg/mL]	MIC [19] [µg/mL]	MIC [20] [µg/mL]	SMILES
0.78 (≈ 1.32 µM)	0.05 (≈ 0.0845 µM)	0.1 (≈ 0.169 µM)	0.1 (≈ 0.169 µM)	0.2 (≈ 0.338 µM)	3.13 (≈ 5.29 µM)	0.78 (≈ 1.32 µM)	0.05 (≈ 0.0845 µM)	0.012 (≈ 0.0203 µM)	3.13 (≈ 5.29 µM)	0.2 (≈ 0.338 µM)	0.1 (≈ 0.169 µM)	0.2 (≈ 0.338 µM)	0.78 (≈ 1.32 µM)	0.78 (≈ 1.32 µM)	1.56 (≈ 2.63 µM)	0.05 (≈ 0.0845 µM)	0.39 (≈ 0.659 µM)	0.39 (≈ 0.659 µM)	0.012 (≈ 0.0203 µM)	CO/N=C(\C(=O)N[C@@H]1C(=O)N2C(C(=O)[O-])=C(C[n+]3ccn4c(CO)ccc4c3C)CS[C@H]12)c1nc(N)sc1Cl [Ex. 58, 7-β-[(Z)-2-(2-amino-5-chlorothiazol-4-yl)-2-methoxyiminoacetamido]-3-(6-hydroxymethyl-1-methylpyrrolo[1,2-a]-pyrazinium-2-yl)methyl-3-cephem-4-carboxylate]
0.39 (≈ 0.694 µM)	0.012 (≈ 0.0214 µM)	0.012 (≈ 0.0214 µM)	0.025 (≈ 0.0445 µM)	0.1 (≈ 0.178 µM)	6.25 (≈ 11.1 µM)	0.39 (≈ 0.694 µM)	0.012 (≈ 0.0214 µM)	≤ 0.006	6.25 (≈ 11.1 µM)	0.025 (≈ 0.0445 µM)	0.012 (≈ 0.0214 µM)	0.025 (≈ 0.0445 µM)	0.05 (≈ 0.089 µM)	0.78 (≈ 1.39 µM)	3.13 (≈ 5.57 µM)	0.1 (≈ 0.178 µM)	0.012 (≈ 0.0214 µM)	0.39 (≈ 0.694 µM)	≤ 0.006	CO/N=C(\C(=O)N[C@@H]1C(=O)N2C(C(=O)[O-])=C(C[n+]3ccn4c(Cl)ccc4c3C)CS[C@H]12)c1csc(N)n1 [Ex. 45, 7-β-[(Z)-2-(2-aminothiazol-4-yl)-2-methoxyiminoacetamido]-3-(6-chloro-1-methylpyrrolo[1,2-a]pyrazinium-2-yl)methyl-3-cephem-4-carboxylate]
1.56 (≈ 2.88 µM)	≤ 0.006	0.012 (≈ 0.0222 µM)	0.012 (≈ 0.0222 µM)	0.2 (≈ 0.369 µM)	6.25 (≈ 11.5 µM)	0.78 (≈ 1.44 µM)	≤ 0.006	0.012 (≈ 0.0222 µM)	25 (≈ 46.2 µM)	0.012 (≈ 0.0222 µM)	0.2 (≈ 0.369 µM)	0.012 (≈ 0.0222 µM)	0.2 (≈ 0.369 µM)	0.78 (≈ 1.44 µM)	3.13 (≈ 5.78 µM)	0.1 (≈ 0.185 µM)	0.025 (≈ 0.0462 µM)	0.2 (≈ 0.369 µM)	0.012 (≈ 0.0222 µM)	CCc1c[n+](CC2=C(C(=O)[O-])N3C(=O)[C@@H](NC(=O)/C(=N\OC)c4csc(N)n4)[C@H]3SC2)cc2cccn12 [Ex. 37, 7-β-[(Z)-2-(2-aminothiazol-4-yl)-2-methoxyiminoacetamido]-3-(4-ethylpyrrolo[1,2-a]pyrazinium-2-yl)methyl-3-cephem-4-carboxylate]
